Data on two compounds can be found in patent publication US7662810B2, “2-arylmethylazetidine carbapenem derivatives and preparation thereof” (Korea Research Institute of Chemical Technology, priority 2004, dated 2010).

Series [1] has as its target T1, Dihydropeptidase-1 (DHP-1) (Sus scrofa, UniProt P22412).
T1 sequence (P22412 17-384): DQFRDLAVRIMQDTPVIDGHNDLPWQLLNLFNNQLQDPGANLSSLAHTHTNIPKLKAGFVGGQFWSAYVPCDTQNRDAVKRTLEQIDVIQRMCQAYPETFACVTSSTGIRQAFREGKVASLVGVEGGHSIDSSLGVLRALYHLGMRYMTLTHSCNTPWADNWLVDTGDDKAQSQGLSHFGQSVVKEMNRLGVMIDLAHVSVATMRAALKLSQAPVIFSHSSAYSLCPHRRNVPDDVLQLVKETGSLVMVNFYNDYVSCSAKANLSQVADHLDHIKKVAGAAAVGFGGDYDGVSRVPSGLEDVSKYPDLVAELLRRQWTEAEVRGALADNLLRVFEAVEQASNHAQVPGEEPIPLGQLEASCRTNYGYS
Method: (§2) The rate of degradation of the inventive compounds by the action of DHP-1 enzyme extracted from hog kidney was determined as follow.
(§3) 0.2 unit of the enzyme was allowed to react with the above solution at 30° C., and the absorbance at 299 nm of the remaining medicament was measured to determine the degradation rate. The absorbance was measured at 0, 0.5, 1, 2 and 4 hour points, and T1/2, the time when the concentration of the medicament become the half, was obtained by regression analysis.

For series [2], the system named is Klebsiella oxytoca 1082 E. Put plainly: Measurement of Minimum Inhibitory Concentration (MIC). The series is classed as cell-based. A digest of the protocol: (§1)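 Agar dilution on Müller-Hinton plates carrying serial twofold dilutions of compound (final 0.002–100 μg/ml), spotted with about 10^4 CFU/spot and incubated 18 h at 37 °C. Inocula came from 18 h shaken cultures in Fleisch extract broth, pH 7.4-7.5. MIC read after incubation.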

In the next series the test system is Escherichia coli TEM. Described as above. The series is classed as cell-based. A digest of the protocol:
as §1

For series [3], the system named is Enterobacter cloacae 1321 E. The series is described as above. In kind it is cell-based. In short, it runs like this:
as §1

For series [4], the system named is Staphylococcus pyogenes 77A. The series is described as above. As to conditions: Staphylococcus pyogenes 77A. The series is classed as cell-based. A digest of the protocol: as §1
Series [5] concerns Klebsiella aerogenes 1522 E. The series is described as above. The series is classed as cell-based. A digest of the protocol: as §1
The subject of the next series is Escherichia coli 078. The series is described as above. The series is classed as cell-based. A digest of the protocol: as §1
Series [6] deals with Staphylococcus faecium MD 8b. Described as above. In kind it is cell-based. As to conditions: Staphylococcus faecium MD 8b. In short, it runs like this: as §1
In a further series the test system is Escherichia coli DC 0. Described as above. In kind it is cell-based. In short, it runs like this: as §1
Series [7] relates to Staphylococcus aureus 503. The description is as above. In kind it is cell-based. A digest of the protocol: as §1
Series [8] deals with Salmonella typhimurium 179. The series is described as above. The conditions noted are these: Salmonella typhimurium 179. In kind it is cell-based. In short, it runs like this:
as §1

Another series relates to Escherichia coli 1507 E. The description is as above. The series is classed as cell-based. In short, it runs like this: as §1
In the next series the test system is Escherichia coli DC 2. The series is described as above. In kind it is cell-based. In short, it runs like this: as §1
The next series can be described thus: Acute Toxicity Test. As for the experimental part:
The acute toxicity of the compound of Example 14 was tested using several groups of ICR mice each of 10 mice.

In series [9] the target is T1, Dihydropeptidase-1 (DHP-1). The series is described as follows: Sensitivity Assay Against Dihydropeptidase-1 (DHP-1). As to conditions: pig, DHP-1 enzyme extracted from hog kidney.
Method: as §2, §3

Structures are written as SMILES. Values after ≈ are worked out from the molar mass of the structure shown. Read-outs that look alike come from different tables or passages of the source.

In general, MIC refers to the lowest concentration that inhibits growth of the organism. For `COc1ccc(CN2CC(SC3=C(C(=O)[O-])N4C(=O)[C@H]([C@@H](C)O)[C@H]4[C@H]3C)C2)cc1.[K+]` [Exam. 14, Potassium(1R,5S,6S)-2-[1-(4-methoxybenzyl)-azetidine-3-yl-thio]-6-[(1R)-1-hydroxylethyl]-1-methylcarbapen-2-em-3-carboxylate], the “T1/2 (time when the concentration of the medicament become the half)” value in series [1] was 19.88. Besides, the MIC in [2] stood at 0.098 µg/mL; against Escherichia coli TEM (Escherichia coli TEM), 0.195 µg/mL; in [3], 0.098 µg/mL; in series [4] it was 0.002 µg/mL; in series [5], 0.195 µg/mL; in the series on Escherichia coli 078 it was 0.013 µg/mL. Moreover, the MIC is 1.563 µg/mL in series [6]; 0.049 µg/mL in the series on Escherichia coli DC 0; 0.025 µg/mL in [7]; 0.098 µg/mL in series [8]; 0.098 µg/mL against Escherichia coli 1507 E; 0.049 µg/mL in the series with Escherichia coli DC 2. Also, the death entry in “Acute Toxicity Test” (ICR mice, 500, 1,000 and 2,000 mg/kg intraperitoneally, 7 days) is “no mice died”. Moreover, the LD50 entry in the series “Acute Toxicity Test” (ICR mice, intraperitoneally injected, observed for 7 days) is reported as “higher than 2,000 mg/kg”.
One may read the half-life as the time needed for the level to fall by half in the phase considered. Read a low half-life as fast loss. Take `C[C@@H](O)[C@H]1C(=O)N2C(C(=O)O)=C(S[C@@H]3CN[C@H](C(=O)N(C)C)C3)[C@H](C)[C@H]12` [Meropenem, reference compound]: the half-life at 500 μg/ml in series [9] was 18.3 h. Moreover, the MIC worked out at 0.049 µg/mL (≈ 0.128 µM) in [2] (read-out: MIC); 0.025 µg/mL (≈ 0.0652 µM) against Escherichia coli TEM (Escherichia coli); 0.025 µg/mL (≈ 0.0652 µM) in series [3] (read-out: MIC); 0.004 µg/mL (≈ 0.0104 µM) in series [4] (Staphylococcus aureus, read-out: MIC); 0.049 µg/mL (≈ 0.128 µM) in series [5] (read-out: MIC); 0.025 µg/mL (≈ 0.0652 µM) in the series on Escherichia coli 078 (read-out: MIC). For the same compound, the MIC in series [6] (MD8B, read-out: MIC) is 6.25 µg/mL (≈ 16.3 µM); in the series with Escherichia coli DC 0 (DC0, read-out: MIC), 0.025 µg/mL (≈ 0.0652 µM); in [7] (read-out: MIC), 0.049 µg/mL (≈ 0.128 µM); in [8] (Salmonella enterica, read-out: MIC), 0.049 µg/mL (≈ 0.128 µM); in the series with Escherichia coli 1507 E (read-out: MIC) it was 0.025 µg/mL (≈ 0.0652 µM); with Escherichia coli DC 2 it was 0.025 µg/mL (≈ 0.0652 µM).
